Experiments:
Assay type in all cases: in vivo
[1] = tested on: ducksalad (Heteranthera limosa); test: Test B flooded paddy test plant response
Summary of the method: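 Paddy-water application to 2-leaf plants in pots held under 3 cm of flooding; response is a 0–100 visual control rating against controls after 13 to 15 days, and a dash marks a missing result.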

[2] = tested on: common (oilseed) sunflower (Helianthus annuus); test: Test B pre-/postemergence plant response; details: Preemergence
Summary of the method: (§1)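 Seeds were sown and sprayed preemergence, while plants at 2 to 18 cm (1- to 4-leaf stage) got postemergence sprays. Compounds were formulated in a non-phytotoxic solvent mixture with surfactant. After 13 to 15 days in a greenhouse, injury was rated visually against untreated controls, 0 (no effect) to 100 (complete control).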

[3] = tested on: bermudagrass (Cynodon dactylon); test: Test B pre-/postemergence plant response; details: for Bermudagrass plant response rating: 8 g ai/ha
Summary of the method: as §1

[4] = tested on: lambsquarters (Chenopodium album); test: Test B pre-/postemergence plant response; details: for Lambsquarters plant response rating: 8 g ai/ha
Summary of the method: as §1

corn (Zea mays) = test: Test B pre-/postemergence plant response; details: for Corn plant response rating: 8 g ai/ha
Summary of the method: as §1

soybean (Glycine max) = test: Test B pre-/postemergence plant response; details: for Soybean plant response rating: 8 g ai/ha
Summary of the method: as §1

[5] = tested on: wheat (Triticum aestivum); test: Test B pre-/postemergence plant response; details: for Wheat plant response rating: 8 g ai/ha
Summary of the method: as §1

[6] = tested on: large crabgrass (Digitaria sanguinalis); test: Test B pre-/postemergence plant response; details: for Crabgrass, Large plant response rating: 8 g ai/ha
Summary of the method: as §1

kochia (Kochia scoparia) = test: Test B pre-/postemergence plant response; details: for Kochia plant response rating: 8 g ai/ha
Summary of the method: as §1

[7] = tested on: cocklebur (Xanthium strumarium); test: Test B pre-/postemergence plant response; details: for Cocklebur plant response rating: 8 g ai/ha
Summary of the method: as §1

[8] = tested on: goosegrass (Eleusine indica); test: Test B pre-/postemergence plant response; details: for Goosegrass plant response rating: 8 g ai/ha
Summary of the method: as §1

[9] = tested on: Russian thistle (Salsola iberica); test: Test B pre-/postemergence plant response; details: Preemergence
Summary of the method: as §1

[10] = tested on: surinam grass (Brachiaria decumbens); test: Test B pre-/postemergence plant response; details: for Surinam Grass plant response rating: 8 g ai/ha
Summary of the method: as §1

[11] = tested on: common ragweed (Ambrosia elation); test: Test B pre-/postemergence plant response; details: for Ragweed plant response rating: 8 g ai/ha
Summary of the method: as §1

[12] = 16 g ai/ha, scale 0 to 100 (0 no effect, 100 complete control)
[13] = 31 g ai/ha, 0 to 100 scale, 0 no effect, 100 complete control
[14] = Postemergence, 16 g ai/ha, scale 0 to 100
[15] = Postemergence, 31 g ai/ha, scale 0 to 100, 0 no effect, 100 complete control
[16] = Postemergence, 62 g ai/ha, scale 0 to 100, 0 no effect, 100 complete control
[17] = Preemergence, 16 g ai/ha, scale 0 to 100 (0 no effect, 100 complete control)
[18] = Preemergence, 31 g ai/ha, 0 to 100 scale, 0 no effect, 100 complete control
[19] = Preemergence, 62 g ai/ha, scale 0 to 100

Cc1cc(-c2ccc(Cl)cc2)nn1-c1c(OS(=O)(=O)c2ccccc2)cnn(C)c1=O [Compound 35]
Plant response rating, Ducksalad ([1]; Flood (flooded paddy test), 62 g ai/ha, scale 0 to 100, 0 no effect, 100 complete control): 0
Plant response rating, Ducksalad ([1]; Flood (flooded paddy test), 125 g ai/ha, scale 0 to 100, 0 no effect, 100 complete control): 0
Plant response rating, Ducksalad ([1]; Flood, 31 g ai/ha, scale 0 to 100): 0
Plant response rating, Sunflower [2, 12]: 0
Plant response rating, Sunflower [2, 13]: 0
Plant response rating, Sunflower ([2]; 62 g ai/ha, scale 0 to 100): 0
Sunflower plant response rating ([2]; 8 g ai/ha, scale 0 to 100): 0
Bermudagrass plant response rating ([3]; postemergence, 0-100 scale): 40
Plant response rating, Bermudagrass [3, 14]: 65
Plant response rating, Bermudagrass [3, 15]: 100
Plant response rating, Bermudagrass [3, 16]: 100
Bermudagrass plant response rating ([3]; Preemergence, scale 0 to 100 (0 no effect, 100 complete control)): 98
Plant response rating, Bermudagrass [3, 17]: 98
Plant response rating, Bermudagrass [3, 18]: 100
Plant response rating, Bermudagrass [3, 19]: 100
Lambsquarters plant response rating ([4]; postemergence, 0-100 scale): 0
Plant response rating, Lambsquarters [4, 14]: 0
Plant response rating, Lambsquarters [4, 15]: 0
Plant response rating, Lambsquarters [4, 16]: 0
Plant response rating, Lambsquarters [4, 17]: 0
Plant response rating, Lambsquarters [4, 18]: 0
Plant response rating, Lambsquarters [4, 19]: 0
Lambsquarters plant response rating ([4]; Preemergence, scale 0 to 100): 0
Corn plant response rating (corn (Zea mays); postemergence, 0-100 scale): 40
Plant response rating, Corn (corn (Zea mays); [14]): 90
Plant response rating, Corn (corn (Zea mays); [15]): 100
Plant response rating, Corn (corn (Zea mays); [16]): 100
Plant response rating, Corn (corn (Zea mays); [17]): 40
Plant response rating, Corn (corn (Zea mays); [18]): 55
Plant response rating, Corn (corn (Zea mays); [19]): 90
Corn plant response rating (corn (Zea mays); Preemergence, scale 0 to 100): 5
Soybean plant response rating (soybean (Glycine max); postemergence, 0-100 scale): 0
Plant response rating, Soybean (soybean (Glycine max); [14]): 0
Plant response rating, Soybean (soybean (Glycine max); [16]): 0
Plant response rating, Soybean (soybean (Glycine max); [17]): 0
Plant response rating, Soybean (soybean (Glycine max); [18]): 0
Plant response rating, Soybean (soybean (Glycine max); [19]): 0
Soybean plant response rating (soybean (Glycine max); Preemergence, scale 0 to 100): 0
Wheat plant response rating ([5]; postemergence, 0-100 scale): 0
Plant response rating, Wheat [5, 14]: 35
Plant response rating, Wheat [5, 16]: 85
Plant response rating, Wheat [5, 17]: 0
Plant response rating, Wheat [5, 18]: 0
Plant response rating, Wheat [5, 19]: 30
Wheat plant response rating ([5]; Preemergence, scale 0 to 100): 0
Crabgrass, Large plant response rating ([6]; postemergence, 0-100 scale): 60
Plant response rating, Crabgrass, Large [6, 14]: 70
Plant response rating, Crabgrass, Large [6, 15]: 80
Plant response rating, Crabgrass, Large [6, 16]: 100
Plant response rating, Crabgrass, Large [6, 17]: 100
Plant response rating, Crabgrass, Large [6, 18]: 100
Plant response rating, Crabgrass, Large [6, 19]: 100
Crabgrass, Large plant response rating ([6]; Preemergence, scale 0 to 100): 90
Kochia plant response rating (kochia (Kochia scoparia); postemergence, 0-100 scale): 0
Plant response rating, Kochia (kochia (Kochia scoparia); [14]): 0
Plant response rating, Kochia (kochia (Kochia scoparia); [15]): 0
Plant response rating, Kochia (kochia (Kochia scoparia); [16]): 0
Plant response rating, Kochia (kochia (Kochia scoparia); [17]): 0
Plant response rating, Kochia (kochia (Kochia scoparia); [18]): 0
Kochia plant response rating (kochia (Kochia scoparia); Preemergence, scale 0 to 100): 0
Cocklebur plant response rating ([7]; postemergence, 0-100 scale): 0
Plant response rating, Cocklebur [7, 14]: 0
Plant response rating, Cocklebur [7, 15]: 0
Plant response rating, Cocklebur [7, 16]: 0
Plant response rating, Cocklebur [7, 17]: 0
Plant response rating, Cocklebur [7, 18]: 0
Plant response rating, Cocklebur [7, 19]: 0
Cocklebur plant response rating ([7]; Preemergence, scale 0 to 100): 0
Goosegrass plant response rating ([8]; postemergence, 0-100 scale): 20
Plant response rating, Goosegrass [8, 14]: 40
Plant response rating, Goosegrass [8, 15]: 70
Plant response rating, Goosegrass [8, 16]: 75
Plant response rating, Goosegrass [8, 17]: 100
Plant response rating, Goosegrass [8, 18]: 100
Plant response rating, Goosegrass [8, 19]: 100
Goosegrass plant response rating ([8]; Preemergence, scale 0 to 100): 80
Plant response rating, Russian Thistle [9, 12]: 0
Plant response rating, Russian Thistle [9, 13]: 0
Plant response rating, Russian Thistle ([9]; 62 g ai/ha, scale 0 to 100): 0
Russian Thistle plant response rating ([9]; 8 g ai/ha, scale 0 to 100): 0
Surinam Grass plant response rating ([10]; postemergence, 0-100 scale): 70
Plant response rating, Surinam Grass [10, 14]: 95
Plant response rating, Surinam Grass [10, 16]: 100
Plant response rating, Surinam Grass [10, 17]: 90
Plant response rating, Surinam Grass [10, 18]: 100
Plant response rating, Surinam Grass [10, 19]: 100
Surinam Grass plant response rating ([10]; Preemergence, scale 0 to 100): 45
Ragweed plant response rating ([11]; postemergence, 0-100 scale): 0
Plant response rating, Ragweed [11, 14]: 0
Plant response rating, Ragweed [11, 15]: 0
Plant response rating, Ragweed [11, 16]: 0
Plant response rating, Ragweed [11, 17]: 0
Plant response rating, Ragweed [11, 18]: 0
Plant response rating, Ragweed [11, 19]: 0
Ragweed plant response rating ([11]; Preemergence, scale 0 to 100): 0

Source: patent US20100267561A1, “HERBICIDAL PYRIDAZINONE DERIVATIVES” (priority 2007, published 2010)
